Experimental data from ChEMBL document CHEMBL5233229, “Recent advances in the development of ubiquitin-specific-processing protease 7 (USP7) inhibitors” (Eur J Med Chem, 2020).
In brackets after ≈: the same amount, converted by molar mass.

Tests used:
[1] = Aqueous solubility of compound; format: physicochemical
[2] = biological target: Ubiquitin carboxyl-terminal hydrolase 9X (Homo sapiens, UniProt Q93008); assay: Inhibition of USP9x (unknown origin)
[3] = biological target: T1, Ubiquitin carboxyl-terminal hydrolase 14 (Homo sapiens, UniProt P54578); assay: Inhibition of human his tagged USP14 by SPR analysis
T1 sequence (P54578 whole entry): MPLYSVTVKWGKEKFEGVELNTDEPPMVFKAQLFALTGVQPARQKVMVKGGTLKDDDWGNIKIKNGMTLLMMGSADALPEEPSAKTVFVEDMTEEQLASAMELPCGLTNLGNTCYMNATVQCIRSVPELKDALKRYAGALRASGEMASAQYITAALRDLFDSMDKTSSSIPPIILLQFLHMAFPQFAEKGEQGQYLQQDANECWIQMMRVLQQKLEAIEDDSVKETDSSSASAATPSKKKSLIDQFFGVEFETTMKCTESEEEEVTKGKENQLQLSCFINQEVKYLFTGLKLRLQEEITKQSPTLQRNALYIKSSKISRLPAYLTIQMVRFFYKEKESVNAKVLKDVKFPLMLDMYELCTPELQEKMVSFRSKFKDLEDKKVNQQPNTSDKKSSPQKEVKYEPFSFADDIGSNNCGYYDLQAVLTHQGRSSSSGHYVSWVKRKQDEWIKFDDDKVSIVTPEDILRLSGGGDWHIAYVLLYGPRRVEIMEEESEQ

[4] = biological target: T1, Ubiquitin carboxyl-terminal hydrolase 14; assay: Inhibition of human his tagged USP14 assessed as dissociation constant by SPR analysis
[5] = biological target: T2, Ubiquitin carboxyl-terminal hydrolase isozyme L5 (Homo sapiens, UniProt Q9Y5K5); assay: Inhibition of human his tagged UCHL5 assessed as dissociation constant by SPR analysis
T2 sequence (Q9Y5K5 whole entry): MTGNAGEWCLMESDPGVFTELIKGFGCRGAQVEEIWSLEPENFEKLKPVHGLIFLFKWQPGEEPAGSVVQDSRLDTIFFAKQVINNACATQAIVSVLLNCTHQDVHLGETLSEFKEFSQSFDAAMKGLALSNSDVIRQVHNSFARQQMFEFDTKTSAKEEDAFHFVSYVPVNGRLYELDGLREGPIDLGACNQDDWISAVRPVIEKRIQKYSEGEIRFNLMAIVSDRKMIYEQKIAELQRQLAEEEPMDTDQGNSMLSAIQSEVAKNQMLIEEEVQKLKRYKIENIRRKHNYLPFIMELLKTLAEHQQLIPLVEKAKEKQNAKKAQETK

MM1.S = assay: Anticancer activity against human MM1.S cells assessed as cell growth inhibition incubated for 120 hrs by CellTiter-Glo assay; format: functional, cell-based
[6] = biological target: T3, Ubiquitin carboxyl-terminal hydrolase 7 (Homo sapiens, UniProt Q93009); assay: Inhibition of human his tagged USP7 (208 to 560 residues) catalytic domain expressed in insect sf9 cells using monoubiquitinated ubiquitin-rhodamine as substrate incubated for 1 hrs by fluorescence based assay
Target sequence in this assay (Q93009 whole entry, the tested form may be a part): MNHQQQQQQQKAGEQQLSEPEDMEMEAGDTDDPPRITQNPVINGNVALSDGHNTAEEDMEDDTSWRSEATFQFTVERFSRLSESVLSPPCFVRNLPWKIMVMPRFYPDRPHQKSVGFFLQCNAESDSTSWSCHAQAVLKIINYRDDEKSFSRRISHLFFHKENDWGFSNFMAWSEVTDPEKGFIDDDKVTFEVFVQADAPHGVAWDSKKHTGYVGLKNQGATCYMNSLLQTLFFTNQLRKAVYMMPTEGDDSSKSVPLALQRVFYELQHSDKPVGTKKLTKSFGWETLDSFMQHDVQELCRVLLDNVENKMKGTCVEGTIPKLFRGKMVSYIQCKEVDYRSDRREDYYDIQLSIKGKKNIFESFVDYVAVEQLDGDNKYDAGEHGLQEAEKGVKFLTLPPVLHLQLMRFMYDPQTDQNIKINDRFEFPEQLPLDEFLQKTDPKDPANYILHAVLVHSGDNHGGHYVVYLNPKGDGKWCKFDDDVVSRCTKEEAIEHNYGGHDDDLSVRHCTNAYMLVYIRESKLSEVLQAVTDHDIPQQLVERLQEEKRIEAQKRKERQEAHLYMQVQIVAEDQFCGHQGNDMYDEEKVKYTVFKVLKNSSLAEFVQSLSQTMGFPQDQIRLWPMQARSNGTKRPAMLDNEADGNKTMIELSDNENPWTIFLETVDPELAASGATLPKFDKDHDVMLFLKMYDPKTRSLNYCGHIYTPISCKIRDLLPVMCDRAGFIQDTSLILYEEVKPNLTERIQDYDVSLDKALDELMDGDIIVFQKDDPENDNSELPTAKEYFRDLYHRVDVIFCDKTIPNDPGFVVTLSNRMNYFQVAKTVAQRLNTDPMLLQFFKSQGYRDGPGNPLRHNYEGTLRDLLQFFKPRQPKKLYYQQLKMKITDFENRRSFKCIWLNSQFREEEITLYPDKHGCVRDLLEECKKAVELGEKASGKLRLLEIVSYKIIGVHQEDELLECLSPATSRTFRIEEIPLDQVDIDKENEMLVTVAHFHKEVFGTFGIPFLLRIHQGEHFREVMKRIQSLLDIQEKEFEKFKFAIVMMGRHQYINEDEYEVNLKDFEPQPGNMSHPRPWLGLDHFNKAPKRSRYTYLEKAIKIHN

[7] = biological target: Ubiquitin carboxyl-terminal hydrolase 24 (Homo sapiens, UniProt Q9UPU5); assay: Inhibition of USP24 (unknown origin)
Sequence of Ubiquitin carboxyl-terminal hydrolase 24 (Q9UPU5 whole entry): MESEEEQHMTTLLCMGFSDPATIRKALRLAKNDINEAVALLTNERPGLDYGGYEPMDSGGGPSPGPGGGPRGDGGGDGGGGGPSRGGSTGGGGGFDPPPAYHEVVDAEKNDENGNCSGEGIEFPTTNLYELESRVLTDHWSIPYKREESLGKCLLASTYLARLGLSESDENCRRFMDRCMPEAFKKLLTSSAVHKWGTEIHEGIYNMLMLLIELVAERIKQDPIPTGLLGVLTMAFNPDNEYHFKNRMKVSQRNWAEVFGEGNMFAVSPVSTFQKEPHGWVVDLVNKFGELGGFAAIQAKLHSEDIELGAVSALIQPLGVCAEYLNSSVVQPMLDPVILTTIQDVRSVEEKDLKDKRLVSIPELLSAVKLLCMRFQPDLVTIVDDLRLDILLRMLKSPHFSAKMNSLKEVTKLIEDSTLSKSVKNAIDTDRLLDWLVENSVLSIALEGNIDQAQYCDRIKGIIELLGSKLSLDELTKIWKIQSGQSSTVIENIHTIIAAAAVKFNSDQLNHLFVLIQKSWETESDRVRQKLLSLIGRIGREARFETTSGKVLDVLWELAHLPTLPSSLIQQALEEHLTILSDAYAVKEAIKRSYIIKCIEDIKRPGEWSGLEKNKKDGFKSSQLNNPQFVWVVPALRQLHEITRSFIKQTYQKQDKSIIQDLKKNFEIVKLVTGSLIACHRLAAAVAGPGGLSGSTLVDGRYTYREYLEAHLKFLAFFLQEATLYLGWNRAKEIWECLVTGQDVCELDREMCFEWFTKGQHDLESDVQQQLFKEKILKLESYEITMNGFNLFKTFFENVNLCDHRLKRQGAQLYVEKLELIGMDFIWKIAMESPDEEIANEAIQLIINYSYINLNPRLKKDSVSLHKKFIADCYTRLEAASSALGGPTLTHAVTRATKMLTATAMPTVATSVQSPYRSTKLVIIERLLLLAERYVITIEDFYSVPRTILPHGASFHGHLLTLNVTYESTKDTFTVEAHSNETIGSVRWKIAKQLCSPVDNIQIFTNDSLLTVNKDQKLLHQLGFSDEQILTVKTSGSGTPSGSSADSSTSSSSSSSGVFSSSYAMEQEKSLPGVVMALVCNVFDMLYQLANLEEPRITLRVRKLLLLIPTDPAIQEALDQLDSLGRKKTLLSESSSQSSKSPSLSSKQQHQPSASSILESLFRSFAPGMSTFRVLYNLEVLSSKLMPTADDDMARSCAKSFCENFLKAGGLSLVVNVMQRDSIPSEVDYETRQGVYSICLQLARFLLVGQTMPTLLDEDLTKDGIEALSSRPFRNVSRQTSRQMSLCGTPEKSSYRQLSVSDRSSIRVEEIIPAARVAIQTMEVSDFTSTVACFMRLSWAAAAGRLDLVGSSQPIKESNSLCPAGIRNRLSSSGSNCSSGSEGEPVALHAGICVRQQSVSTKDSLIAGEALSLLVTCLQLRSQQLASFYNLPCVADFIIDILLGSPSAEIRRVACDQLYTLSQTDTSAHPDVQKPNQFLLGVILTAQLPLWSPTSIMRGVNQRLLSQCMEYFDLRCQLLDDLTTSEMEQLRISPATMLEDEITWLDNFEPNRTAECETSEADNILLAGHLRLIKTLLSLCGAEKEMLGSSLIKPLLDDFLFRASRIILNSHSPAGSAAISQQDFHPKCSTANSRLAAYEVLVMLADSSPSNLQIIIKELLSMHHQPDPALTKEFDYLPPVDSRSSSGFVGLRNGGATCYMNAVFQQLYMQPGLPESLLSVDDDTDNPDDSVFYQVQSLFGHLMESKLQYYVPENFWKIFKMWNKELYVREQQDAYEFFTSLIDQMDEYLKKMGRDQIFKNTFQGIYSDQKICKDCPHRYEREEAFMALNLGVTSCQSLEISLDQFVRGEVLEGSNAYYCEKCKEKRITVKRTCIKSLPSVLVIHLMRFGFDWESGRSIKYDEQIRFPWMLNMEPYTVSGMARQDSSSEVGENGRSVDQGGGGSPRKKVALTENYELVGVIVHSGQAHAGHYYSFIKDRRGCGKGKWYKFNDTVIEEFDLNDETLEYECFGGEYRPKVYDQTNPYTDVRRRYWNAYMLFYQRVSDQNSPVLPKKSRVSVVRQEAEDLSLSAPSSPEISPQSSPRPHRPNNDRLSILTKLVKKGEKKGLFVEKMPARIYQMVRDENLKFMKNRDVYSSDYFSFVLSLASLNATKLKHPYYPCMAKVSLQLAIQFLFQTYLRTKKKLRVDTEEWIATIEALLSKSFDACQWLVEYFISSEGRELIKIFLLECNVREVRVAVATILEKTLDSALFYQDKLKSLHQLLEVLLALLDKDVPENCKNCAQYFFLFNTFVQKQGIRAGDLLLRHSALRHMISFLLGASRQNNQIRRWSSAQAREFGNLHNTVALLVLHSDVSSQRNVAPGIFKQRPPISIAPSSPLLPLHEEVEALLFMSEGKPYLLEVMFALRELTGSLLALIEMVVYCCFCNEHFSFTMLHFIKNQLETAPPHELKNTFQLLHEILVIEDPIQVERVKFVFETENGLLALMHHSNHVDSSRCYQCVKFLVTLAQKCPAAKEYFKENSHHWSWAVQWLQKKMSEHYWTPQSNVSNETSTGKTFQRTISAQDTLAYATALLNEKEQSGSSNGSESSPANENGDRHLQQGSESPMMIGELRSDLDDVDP

[8] = biological target: T4, Ubiquitin carboxyl-terminal hydrolase 2 (Homo sapiens, UniProt O75604); assay: Inhibition of human USP2 using Di-Ub IQF as substrate incubated for 15 mins by K63-2 assay
T4 sequence (O75604 whole entry): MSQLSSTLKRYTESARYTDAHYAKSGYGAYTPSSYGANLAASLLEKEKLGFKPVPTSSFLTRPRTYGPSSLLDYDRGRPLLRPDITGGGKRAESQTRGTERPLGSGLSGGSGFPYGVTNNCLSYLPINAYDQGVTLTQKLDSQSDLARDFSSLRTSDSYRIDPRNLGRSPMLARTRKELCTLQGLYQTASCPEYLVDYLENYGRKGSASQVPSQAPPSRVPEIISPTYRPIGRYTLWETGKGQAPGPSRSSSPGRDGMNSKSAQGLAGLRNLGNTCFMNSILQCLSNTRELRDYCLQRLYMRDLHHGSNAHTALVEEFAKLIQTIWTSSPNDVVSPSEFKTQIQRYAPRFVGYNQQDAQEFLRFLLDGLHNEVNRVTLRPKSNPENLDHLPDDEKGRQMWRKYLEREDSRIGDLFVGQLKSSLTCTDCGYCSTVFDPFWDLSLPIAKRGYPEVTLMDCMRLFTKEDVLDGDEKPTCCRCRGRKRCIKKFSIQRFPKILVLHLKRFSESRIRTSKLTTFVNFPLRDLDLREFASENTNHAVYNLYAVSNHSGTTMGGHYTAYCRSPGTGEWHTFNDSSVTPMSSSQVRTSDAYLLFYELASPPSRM

HCT-116 [9] = assay: Anticancer activity against human HCT-116 cells assessed as cell growth inhibition incubated for 72 hrs by CellTiter Glo assay; format: functional, cell-based; conditions: HCT-116, 72 h
[10] = biological target: T5, Ubiquitin carboxyl-terminal hydrolase 8 (Homo sapiens, UniProt P40818); assay: Inhibition of human USP8 using Di-Ub IQF as substrate incubated for 15 mins by K63-2 assay
T5 sequence (P40818 whole entry): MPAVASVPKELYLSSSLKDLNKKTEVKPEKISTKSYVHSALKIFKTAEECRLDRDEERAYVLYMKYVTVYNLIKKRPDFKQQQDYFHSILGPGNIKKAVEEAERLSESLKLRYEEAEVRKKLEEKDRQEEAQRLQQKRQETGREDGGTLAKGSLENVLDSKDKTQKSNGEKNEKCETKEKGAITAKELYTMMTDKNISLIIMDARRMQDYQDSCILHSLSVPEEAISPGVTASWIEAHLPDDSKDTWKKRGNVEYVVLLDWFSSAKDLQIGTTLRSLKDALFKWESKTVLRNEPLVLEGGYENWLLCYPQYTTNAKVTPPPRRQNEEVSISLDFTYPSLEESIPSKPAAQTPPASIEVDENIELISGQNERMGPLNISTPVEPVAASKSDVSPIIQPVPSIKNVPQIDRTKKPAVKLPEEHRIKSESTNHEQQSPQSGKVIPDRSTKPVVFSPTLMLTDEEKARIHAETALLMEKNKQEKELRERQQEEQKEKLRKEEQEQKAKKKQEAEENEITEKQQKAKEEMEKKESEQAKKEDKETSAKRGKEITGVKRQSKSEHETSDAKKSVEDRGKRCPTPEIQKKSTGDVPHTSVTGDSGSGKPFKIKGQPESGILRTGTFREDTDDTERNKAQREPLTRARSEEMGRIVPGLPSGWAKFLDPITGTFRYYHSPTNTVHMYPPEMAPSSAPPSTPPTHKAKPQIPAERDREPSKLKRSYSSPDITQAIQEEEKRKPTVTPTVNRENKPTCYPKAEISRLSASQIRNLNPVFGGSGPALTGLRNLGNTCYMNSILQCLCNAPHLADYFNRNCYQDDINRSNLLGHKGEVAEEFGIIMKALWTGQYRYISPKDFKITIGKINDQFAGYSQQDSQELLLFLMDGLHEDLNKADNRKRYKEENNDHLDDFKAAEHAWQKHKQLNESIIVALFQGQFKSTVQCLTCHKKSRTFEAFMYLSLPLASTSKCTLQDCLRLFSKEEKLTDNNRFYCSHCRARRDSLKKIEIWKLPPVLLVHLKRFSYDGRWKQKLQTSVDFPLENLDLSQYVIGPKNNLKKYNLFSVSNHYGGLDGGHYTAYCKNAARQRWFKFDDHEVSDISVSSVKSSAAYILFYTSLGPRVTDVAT

[11] = biological target: Ubiquitin carboxyl-terminal hydrolase 20 (Homo sapiens, UniProt Q9Y2K6); assay: Inhibition of human his tagged USP20 by Westernblot analysis
[12] = biological target: T4, Ubiquitin carboxyl-terminal hydrolase 2; assay: Inhibition of human his tagged USP2 by Westernblot analysis
[13] = biological target: T6, Ubiquitin carboxyl-terminal hydrolase 5 (Homo sapiens, UniProt P45974); assay: Inhibition of human his tagged USP5 by Westernblot analysis
T6 sequence (P45974 whole entry): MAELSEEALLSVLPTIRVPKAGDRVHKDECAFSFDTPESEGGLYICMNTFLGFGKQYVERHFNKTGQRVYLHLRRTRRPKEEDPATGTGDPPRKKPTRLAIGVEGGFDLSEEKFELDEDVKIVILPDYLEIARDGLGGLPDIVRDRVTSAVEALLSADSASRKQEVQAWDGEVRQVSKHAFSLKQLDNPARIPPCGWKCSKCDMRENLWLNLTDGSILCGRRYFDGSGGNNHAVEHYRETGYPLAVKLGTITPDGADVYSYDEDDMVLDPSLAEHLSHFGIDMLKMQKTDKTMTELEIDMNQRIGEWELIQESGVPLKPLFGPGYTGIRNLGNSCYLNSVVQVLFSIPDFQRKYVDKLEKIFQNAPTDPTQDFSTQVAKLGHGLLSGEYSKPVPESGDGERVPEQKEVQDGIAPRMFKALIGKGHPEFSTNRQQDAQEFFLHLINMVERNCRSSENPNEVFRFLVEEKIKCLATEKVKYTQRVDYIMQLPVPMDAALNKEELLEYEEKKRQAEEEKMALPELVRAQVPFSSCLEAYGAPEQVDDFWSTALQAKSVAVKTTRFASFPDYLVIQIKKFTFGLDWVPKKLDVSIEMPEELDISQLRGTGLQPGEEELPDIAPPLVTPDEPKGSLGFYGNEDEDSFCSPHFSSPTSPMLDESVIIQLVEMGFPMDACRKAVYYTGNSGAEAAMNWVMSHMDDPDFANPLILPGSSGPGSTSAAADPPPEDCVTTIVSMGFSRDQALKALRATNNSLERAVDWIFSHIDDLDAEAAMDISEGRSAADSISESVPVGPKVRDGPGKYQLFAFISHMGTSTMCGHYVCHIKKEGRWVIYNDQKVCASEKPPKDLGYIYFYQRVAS

[14] = biological target: T7, Ubiquitin carboxyl-terminal hydrolase isozyme L3 (Homo sapiens, UniProt P15374); assay: Inhibition of human his tagged UCH-L3 by Westernblot analysis
T7 sequence (P15374 whole entry): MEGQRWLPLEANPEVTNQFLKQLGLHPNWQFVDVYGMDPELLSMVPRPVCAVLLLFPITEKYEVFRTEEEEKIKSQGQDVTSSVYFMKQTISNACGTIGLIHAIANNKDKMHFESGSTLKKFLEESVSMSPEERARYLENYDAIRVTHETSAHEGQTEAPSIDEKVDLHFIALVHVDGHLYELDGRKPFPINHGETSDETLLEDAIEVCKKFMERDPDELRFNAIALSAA

[15] = biological target: T8, Ubiquitin carboxyl-terminal hydrolase isozyme L1 (Homo sapiens, UniProt P09936); assay: Inhibition of human his tagged UCH-L1 by Westernblot analysis
T8 sequence (P09936 whole entry): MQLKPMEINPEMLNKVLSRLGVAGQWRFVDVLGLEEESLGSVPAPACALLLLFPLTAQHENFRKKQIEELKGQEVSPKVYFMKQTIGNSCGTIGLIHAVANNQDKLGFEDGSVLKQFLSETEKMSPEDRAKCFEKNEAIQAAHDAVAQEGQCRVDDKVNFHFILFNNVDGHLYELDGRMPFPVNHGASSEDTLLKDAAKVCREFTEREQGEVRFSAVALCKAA

[16] = biological target: T5, Ubiquitin carboxyl-terminal hydrolase 8; assay: Inhibition of human his tagged USP8 by Westernblot analysis
[17] = biological target: T3, Ubiquitin carboxyl-terminal hydrolase 7; assay: Inhibition of human USP7 using Ub-Rho110 as substrate by fluorescence based SPR analysis
Target sequence in this assay (Q93009 whole entry, the tested form may be a part): as the sequence (Q93009 whole entry, the tested form may be a part) above

[18] = biological target: T6, Ubiquitin carboxyl-terminal hydrolase 5; assay: Inhibition of human USP5 using Ub-PA as substrate assessed as deubiquitination level incubated for 1 hr by SDS-PAGE assay
[19] = biological target: T1, Ubiquitin carboxyl-terminal hydrolase 14; assay: Inhibition of human USP14 using Ub-PA as substrate assessed as deubiquitination level incubated for 1 hr by SDS-PAGE assay
HCT-116 [20] = assay: Anticancer activity against human HCT-116 cells assessed as cell growth inhibition; format: functional, cell-based
[21] = biological target: T3, Ubiquitin carboxyl-terminal hydrolase 7; assay: Inhibition of human his tagged USP7 (208 to 560 residues) expressed in insect sf9 cells using monoubiquitinated ubiquitin-rhodamine as substrate assessed as dissociation constant incubated for 1 hrs by fluorescence based assay
Target sequence in this assay (Q93009 whole entry, the tested form may be a part): as above

[22] = biological target: T3, Ubiquitin carboxyl-terminal hydrolase 7; assay: Inhibition of human USP7 by SPR analysis
Target sequence in this assay (Q93009 whole entry, the tested form may be a part): as above

[23] = biological target: T3, Ubiquitin carboxyl-terminal hydrolase 7; assay: Inhibition of human his tagged USP7 (208 to 560 residues) expressed in insect sf9 cells using monoubiquitinated ubiquitin-rhodamine as substrate assessed as ratio of Kinact/Ki incubated for 1 hrs by fluorescence based assay
Target sequence in this assay (Q93009 whole entry, looked up, the tested form may be a part): as the sequence (Q93009 whole entry, the tested form may be a part) above

With CCC[C@H](NC(=O)/C(C#N)=C/c1cccc(Br)n1)c1ccccc1 the solubility [1] was 2.3 µM (≈ 0.884 µg/mL) and the IC50 [2] was 2500 nM.
For C=CC(=O)N1CC/C(=C\c2ccc(F)c([N+](=O)[O-])c2)C(=O)/C(=C/c2ccc(F)c([N+](=O)[O-])c2)C1, the IC5 [3] was 10 µM, the Kd [4] was 14000 nM and the Kd [5] was 1500 nM.
With O=C(C[C@@H](C(F)F)n1ccc(F)n1)N1CCC(O)(Cn2cnc3c(cnn3-c3ccc(F)cc3)c2=O)CC1 the IC50 (MM1.S) was 33 nM and the IC50 [6] was 69 nM.
CCCC(NC(=O)/C(C#N)=C/c1nc(Cl)ccc1Cl)c1ccc(OCCN2CCOCC2)cc1 (centres undefined) showed an IC50 [7] of 2500 nM.
Work on Cc1ccc(S(=O)(=O)Nc2cc(C(F)(F)F)ccc2C(=O)Nc2nc(-c3ccccc3)cs2)cc1 yielded an IC50 [8] of 1100 nM, an EC50 (HCT-116 [9]) of 3600 nM and an IC50 [10] of 950 nM.
O=C(NCCc1ccc(Cl)cc1)c1ccc2nc3c(c(Cl)c2c1)CCCC3 showed an IC50 [11] of over 200000 nM, an IC50 [12] of over 200000 nM and an IC50 [13] of over 200000 nM. It also gave an IC50 [14] of over 200000 nM, an IC50 [15] of over 200000 nM and an IC50 [16] of over 200000 nM.
For NCc1ccc(-c2[nH]nc3c(=O)n(CC4(O)CCN(C(=O)C[C@H](c5ccccc5)C(F)(F)F)CC4)cnc23)cc1, the IC50 [17] was 1.5 nM.
Cc1cc(C(=O)CN2CCCCC2)c(C)n1-c1ccc(F)cc1 gave an IC50 [18] of 29100 nM and an IC50 [19] of 680 nM.
Compound CN(CCCNC(=O)c1ccc2nc3c(c(Cl)c2c1)CCCC3)Cc1ccccc1 has an IC50 (HCT-116 [20]) of 2000 nM.
For C=CS(=O)(=O)Nc1ccccc1-c1ccc(C(=O)N2CCC(O)(Cn3cnc4c(cnn4-c4ccc(F)cc4)c3=O)CC2)cc1, the Kd [21] was 7800 nM, the IC50 [22] was 65 nM and the Ratio [23] was 66 M⁻¹ s⁻¹.
